Patent publication US20240238294A1, “ANTICANCER THERAPY” (Boehringer Ingelheim International GmbH, priority 2021, published 2024)
Read-outs that look alike come from different tables or passages of the source. Blank lines part the entries; values can stand above or below the molecule they belong to.

How the values were obtained:
[1] = test system: H358 cells with KRAS G12C + Y96D; conditions: 2D, monotherapy
Excerpt: (§1) Briefly, each KRAS mutation was introduced using a Prime STAR Mutagenesis Basal Kit (Takara) with designed primers into the pBABE-puro-KRas construct (Addgene, Cambridge, MA, USA). Retroviral particles were generated by co-transfection of each pBABE-puro-KRAS construct and pVSV-G vector (Clontech, Fremont, CA, USA) into gp-IRES 293 cells with FuGENE6 transfection reagent (Roche Diagnostics, Basel, Switzerland). Viral particles were concentrated using a retrovirus concentration kit (Clontech). […] The transfected Ba/F3 cells or H358 cells were selected with 0.8-1.0 μg/mL or 2.0 μg/mL of puromycin, respectively. […]
(§2) In the two-dimensional (2D) growth inhibition assay, 5x10^3 cells were cultured in 96-well plates for 24 hours and treated with reagents at ten different concentrations for 72 hr. […] The amount of formazan dye, which reflects cell viability, was measured by reading the absorbance at 450 nm using a multiplate reader (Tecan, Mannedorf, Switzerland). […] IC50 values were determined by a nonlinear regression curve fit utilizing a variable slope model with normalized the response in GraphPad prism version 8 (GraphPad Software, San Diego, CA). […]

[2] = test system: H358 cells with KRAS G12C + Y96S; conditions: 2D, monotherapy
Excerpt: as §1, §2

[3] = test system: H358 cells with KRAS G12C + Y96D; conditions: 3D, monotherapy
Excerpt: (§3) Briefly, each KRAS mutation was introduced using a Prime STAR Mutagenesis Basal Kit (Takara) with designed primers into the pBABE-puro-KRas construct (Addgene, Cambridge, MA, USA). Retroviral particles were generated by co-transfection of each pBABE-puro-KRAS construct and pVSV-G vector (Clontech, Fremont, CA, USA) into gp-IRES 293 cells with FuGENE6 transfection reagent (Roche Diagnostics, Basel, Switzerland). Viral particles were concentrated using a retrovirus concentration kit (Clontech). Ba/F3 cells (3×103) or H358 cells (1×104) were transfected with each retrovirus and cultured at 37° C. for a few days. The transfected Ba/F3 cells or H358 cells were selected with 0.8-1.0 μg/mL or 2.0 μg/mL of puromycin, respectively. […]
as §2

[4] = test system: H358 cells with KRAS G12C + Y96S; conditions: 3D, monotherapy
Excerpt: as §3, §2

[5] = test system: Ba/F3 cells harboring KRAS G12C + Y96S (introduced); test: growth inhibition assay, Ba/F3 cells with introduced KRAS G12C plus secondary mutation; type: cell-based, murine; conditions: Table 3, Ba/F3 G12C + Y96S
Excerpt: (§4) Briefly, each KRAS mutation was introduced using a Prime STAR Mutagenesis Basal Kit (Takara) with designed primers into the pBABE-puro-KRas construct (Addgene, Cambridge, MA, USA). Retroviral particles were generated by co-transfection of each pBABE-puro-KRAS construct and pVSV-G vector (Clontech, Fremont, CA, USA) into gp-IRES 293 cells with FuGENE6 transfection reagent (Roche Diagnostics, Basel, Switzerland). Viral particles were concentrated using a retrovirus concentration kit (Clontech). Ba/F3 cells (3×103) or H358 cells (1×104) were transfected with each retrovirus and cultured at 37° C. for a few days. The transfected Ba/F3 cells or H358 cells were selected with 0.8-1.0 μg/mL or 2.0 μg/mL of puromycin, respectively. After puromycin selection, presence of each KRAS mutation was confirmed as follows; total RNA was extracted from cells using a mirVana miRNA Isolation Kit (Qiagen, Hilden, Germany), and cDNA was generated by reverse transcription using ReverTra Ace (TOYOBO, Osaka, Japan). The KRAS coding sequence was amplified by PCR. The KRAS nucleotide sequence was checked by Sanger sequencing using the 3130 or 3500XL Genetic Analyzer (Applied Biosystems, Waltham, MA).
(§5) In the two-dimensional (2D) growth inhibition assay, 5x10^3 cells were cultured in 96-well plates for 24 hours and treated with reagents at ten different concentrations for 72 hr. Cell viability assays were performed using Cell Counting Kit-8 (Dojindo Laboratories, Kumamoto, Japan). The amount of formazan dye, which reflects cell viability, was measured by reading the absorbance at 450 nm using a multiplate reader (Tecan, Mannedorf, Switzerland). In the 3D growth inhibition assay, 5×10^3 cells were embedded in growth factor-reduced Matrigel (Corning, New York, USA) and cultured in RPMI 1640 medium (Wako) with 10% FBS (Sigma-Aldrich) and P/S (Wako) in 96-well plates. After 72 hours of incubation, cells were treated with the indicated concentrations for 72 hours, and a cell viability assay was performed as described above. IC50 values were determined by a nonlinear regression curve fit utilizing a variable slope model with normalized the response in GraphPad prism version 8 (GraphPad Software, San Diego, CA).
(§6) The RI value was calculated with the following formula: IC50 of each reconstructed Ba/F3 cell/IC50 of parental Ba/F3 cells with KRAS G12C.
(§7) The results are shown as the mean values of three individual experiments. Error bars indicate the standard deviation (SD).

[6] = test system: Ba/F3 cells harboring KRAS G12C + Y96D (introduced); test: as above; type: cell-based, murine; conditions: Table 3, Ba/F3 G12C + Y96D
Excerpt: as §4, §5, §6, §7

[7] = test system: Ba/F3 cells harboring KRAS G12C + A59S (introduced); test: as above; type: cell-based, murine; conditions: Mus musculus, BaF3; Table 3, Ba/F3 G12C + A59S, 72 hours
Excerpt: as §4, §5, §6, §7

[8] = test system: Ba/F3 cells harboring KRAS G12C; test: growth inhibition assay, Ba/F3 cells with KRAS G12C; type: cell-based, murine; conditions: Mus musculus, BaF3; Table 3, Ba/F3 G12C, 72 hours
Excerpt: as §3, §2

[9] = test system: H358 cells harboring G12C plus Y96S; conditions: 72 hours, FIG. 4
Excerpt: as §3, §2

[10] = test system: H358 cells harboring G12C plus Y96D; conditions: 72 hours, FIG. 4
Excerpt: as §3, §2

SMILES: COc1cc2nc(C)nc(N[C@H](C)c3cc(N)cc(C(F)(F)F)c3)c2cc1O[C@H]1CCOC1 [BI-3406]
growth inhibition [1]: modestly inhibited growth | growth inhibition [2]: modestly inhibited growth | growth inhibition [3]: modestly inhibited growth | growth inhibition [4]: modestly inhibited growth

IC50 ([5]; Mus musculus, BaF3, 72 h): > 1 µM | IC50 ([5]; 72 hours): 1.15 µM | IC50 ([6]; Mus musculus, BaF3, 72 h): > 1 µM | IC50 ([6]; 72 hours): 1.09 µM | IC50 [7]: 3.05 µM | IC50 [8]: 0.455 µM
SMILES: C[C@@H]1OCC2(CCN(c3cnc(Sc4ccnc(N)c4Cl)c(N)n3)CC2)[C@@H]1N [TNO 155]

SMILES: C=CC(=O)N1CCN(c2nc(=O)n(-c3c(C)ccnc3C(C)C)c3nc(-c4c(O)cccc4F)c(F)cc23)[C@@H](C)C1 [sotorasib]
IC50 compared to parental H358 cells [9]: approximately 30 times | IC50 compared to parental H358 cells [10]: approximately 30 times
